In patent publication US9795607B2, “Substituted pyrrolopyrimidine compounds, compositions thereof, and methods of treatment therewith” (Signal Pharmaceutical, LLC, priority 2013, dated 2017):
Where two headings read alike, the source gives them in different places.

Tested on: Triple negative breast cancer cell line CAL51
Experiment: Cell Titer Glo proliferation assay, CAL51
Type: cell-based
Conditions: Homo sapiens, CAL-51, read-out: Act. Level
Experimental: Cell Titer Glo Proliferation Assay.
Triple negative breast cancer cell line CAL51 was purchased from DSMZ. […] Allcell lines were maintained in growth media consisting of 90% high glucose Dulbecco's Modified Eagle Medium or RPMI1640 (Invitrogen), 10% fetal bovine serum (Hyclone), and 2 mM L-glutamine (Invitrogen). […] After overnight culture, compound stock (30 mM) was diluted serially in DMSO, further diluted in growth media, and was added to each well as a 10× concentrated solution in a volume of 11 μL, mixed, and allowed to incubate with cells. The compound vehicle (DMSO) was maintained at a final concentration of 0.2% in all wells. After 72 h, 100 μL of Cell Titer Glo solution (Promega) was added to each well of the 96-well plate. The plate was placed on a shaker for 2 minutes. After 10 minutes incubation, the luminescence signal was detected with Envision microplate reader (Perkin Elmer).

[1] = CAL51 cell proliferation (Table 1)
[2] = CAL51 cell proliferation, Cell Titer Glo

Structure (SMILES) | IC50 [1] [µM] | IC50 [2] [µM]
COc1cc(C(=O)N(C)C2COC2)ccc1Nc1nc(OC)c2c(-c3ccnc(F)c3)c[nH]c2n1 [Example 413, 4-(5-(2-fluoropyridin-4-yl)-4-methoxy-7H-pyrrolo[2,3-d]pyrimidin-2-ylamino)-3-methoxy-N-methyl-N-(oxetan-3-yl)benzamide] | 0.1 to 0.4 | 
CNC(=O)c1ccc(-c2c[nH]c3nc(Nc4ccc(C(=O)NC5COC5)cc4OC)nc(OC4CCC4)c23)cn1 [Example 352, 5-(4-cyclobutoxy-2-(2-methoxy-4-(oxetan-3-ylcarbamoyl)phenylamino)-7H-pyrrolo[2,3-d]pyrimidin-5-yl)-N-methylpicolinamide] |  | 1 to 10
CNC(=O)c1ccc(Nc2nc(OC3CCCC3)c3c(-c4cccc(C#N)c4)c[nH]c3n2)c(OC)c1 [Example 324, 4-(5-(3-cyanophenyl)-4-(cyclopentyloxy)-7H-pyrrolo[2,3-d]pyrimidin-2-ylamino)-3-methoxy-N-methylbenzamide] |  | 1 to 10
CNC(=O)c1ccc(-c2c[nH]c3nc(Nc4ccc(C(=O)NC5CN(C)C5)cc4OC)nc(OC4CCOCC4)c23)cc1 [Example 366, 3-methoxy-N-(1-methylazetidin-3-yl)-4-(5-(4-(methylcarbamoyl)phenyl)-4-(tetrahydro-2H-pyran-4-yloxy)-7H-pyrrolo[2,3-d]pyrimidin-2-ylamino)benzamide] |  | 0.1 to 0.4
COCCn1ncc(Nc2nc(OC3CCCC3)c3c(-c4ccc5nc(C)oc5c4)c[nH]c3n2)c1Cl [Example 378, N-(5-chloro-1-(2-methoxyethyl)-1H-pyrazol-4-yl)-4-(cyclopentyloxy)-5-(2-methylbenzo[d]oxazol-6-yl)-7H-pyrrolo[2,3-d]pyrimidin-2-amine] |  | < 0.1
CNC(=O)c1ccc(-c2c[nH]c3nc(Nc4cnn(CC(C)(C)O)c4Cl)nc(OC4CCC4)c23)cc1 [Example 372, 4-(2-(5-chloro-1-(2-hydroxy-2-methylpropyl)-1H-pyrazol-4-ylamino)-4-cyclobutoxy-7H-pyrrolo[2,3-d]pyrimidin-5-yl)-N-methylbenzamide] |  | < 0.1
CNC(=O)c1ccc(-c2c[nH]c3nc(Nc4ccc(C(=O)NC5CN(C)C5)cc4OC)nc(OC4CC4)c23)cc1 [Example 364, 4-(4-cyclopropoxy-5-(4-(methylcarbamoyl)phenyl)-7H-pyrrolo[2,3-d]pyrimidin-2-ylamino)-3-methoxy-N-(1-methylazetidin-3-yl)benzamide] |  | 0.1 to 0.4
COc1cc(C(=O)N(C)C)ncc1Nc1nc(OC)c2c(-c3ccnc(F)c3)c[nH]c2n1 [Example 415, 5-(5-(2-fluoropyridin-4-yl)-4-methoxy-7H-pyrrolo[2,3-d]pyrimidin-2-ylamino)-4-methoxy-N,N-dimethylpicolinamide] | 0.4 to 1 | 
CNC(=O)c1ccc(Nc2nc(OCCOC)c3c(-c4cnn(C)c4)c[nH]c3n2)c(OC)c1 [Example 326, 3-methoxy-4-(4-(2-methoxyethoxy)-5-(1-methyl-1H-pyrazol-4-yl)-7H-pyrrolo[2,3-d]pyrimidin-2-ylamino)-N-methylbenzamide] |  | < 0.1
CNC(=O)c1ccc(-c2c[nH]c3nc(Nc4ccc(C(=O)NC)cc4Cl)nc(OC(C)C)c23)cc1 [Example 432, 3-chloro-4-(4-isopropoxy-5-(4-(methylcarbamoyl)phenyl)-7H-pyrrolo[2,3-d]pyrimidin-2-ylamino)-N-methylbenzamide] | < 0.1 | 
COc1cc(C(=O)NC2COC2)ccc1Nc1nc(OC2(C)CCC2)c2c(-c3ccc4nc(C)oc4c3)c[nH]c2n1 [Example 379, 3-methoxy-4-(5-(2-methylbenzo[d]oxazol-6-yl)-4-(1-methylcyclobutoxy)-7H-pyrrolo[2,3-d]pyrimidin-2-ylamino)-N-(oxetan-3-yl)benzamide] |  | < 0.1
CNC(=O)c1ccc(Nc2nc(OC3CCC(C)(O)CC3)c3c(-c4ccc5nc(C)oc5c4)c[nH]c3n2)c(OC)c1 (stereo not shown) [Example 205, 4-(4-((1r,4r)-4-hydroxy-4-methylcyclohexyloxy)-5-(2-methylbenzo[d]oxazol-6-yl)-7H-pyrrolo[2,3-d]pyrimidin-2-ylamino)-3-methoxy-N-methylbenzamide] |  | < 0.1
CNC(=O)c1ccc(Nc2nc(OC3CCCC3)c3c(-c4cccc(O)c4)c[nH]c3n2)c(OC)c1 [Example 323, 4-(4-(cyclopentyloxy)-5-(3-hydroxyphenyl)-7H-pyrrolo[2,3-d]pyrimidin-2-ylamino)-3-methoxy-N-methylbenzamide] |  | < 0.1
CNC(=O)c1ccc(-c2c[nH]c3nc(Nc4ccc(C(=O)NC5COC5)cc4Cl)nc(OC4CCC4)c23)cc1 [Example 333, 3-chloro-4-(4-cyclobutoxy-5-(4-(methylcarbamoyl)phenyl)-7H-pyrrolo[2,3-d]pyrimidin-2-ylamino)-N-(oxetan-3-yl)benzamide] |  | < 0.1
CCc1cc(C(=O)NC)ccc1Nc1nc(OC2CCOCC2)c2c(-c3ccc4nc(C)oc4c3)c[nH]c2n1 [Example 435, 3-ethyl-N-methyl-4-(5-(2-methylbenzo[d]oxazol-6-yl)-4-(tetrahydro-2H-pyran-4-yloxy)-7H-pyrrolo[2,3-d]pyrimidin-2-ylamino)benzamide] | < 0.1 | 
Cc1nc2ccc(-c3c[nH]c4nc(Nc5cnn(CC(C)(C)O)c5Cl)nc(OC5CCCC5)c34)cc2o1 [Example 371, 1-(5-chloro-4-(4-(cyclopentyloxy)-5-(2-methylbenzo[d]oxazol-6-yl)-7H-pyrrolo[2,3-d]pyrimidin-2-ylamino)-1H-pyrazol-1-yl)-2-methylpropan-2-ol] |  | < 0.1
CNC(=O)c1ccc(-c2c[nH]c3nc(Nc4ccc(C(=O)NC5CN(C)C5)cc4OC)nc(OC(C)(C)C)c23)cc1 [Example 355, 4-(4-tert-butoxy-5-(4-(methylcarbamoyl)phenyl)-7H-pyrrolo[2,3-d]pyrimidin-2-ylamino)-3-methoxy-N-(1-methylazetidin-3-yl)benzamide] |  | < 0.1
COc1cc(C(=O)NC2CN(C)C2)ccc1Nc1nc(OC2CC2)c2c(-c3ccc4nc(C)oc4c3)c[nH]c2n1 [Example 363, 4-(4-cyclopropoxy-5-(2-methylbenzo[d]oxazol-6-yl)-7H-pyrrolo[2,3-d]pyrimidin-2-ylamino)-3-methoxy-N-(1-methylazetidin-3-yl)benzamide] |  | < 0.1
Cc1cc(C(=O)N(C)C)ccc1Nc1nc(OC(C)C)c2c(-c3ccnc(F)c3)c[nH]c2n1 [Example 402, 4-(5-(2-fluoropyridin-4-yl)-4-isopropoxy-7H-pyrrolo[2,3-d]pyrimidin-2-ylamino)-N,N,3-trimethylbenzamide] | < 0.1 | 
CNC(=O)c1ccc(Nc2nc(OC3CCCC3)c3c(-c4ccc(F)cc4C)c[nH]c3n2)c(OC)c1 [Example 319, 4-(4-(cyclopentyloxy)-5-(4-fluoro-2-methylphenyl)-7H-pyrrolo[2,3-d]pyrimidin-2-ylamino)-3-methoxy-N-methylbenzamide] |  | 1 to 10
COc1cc(C(=O)NC2CN(C)C2)ccc1Nc1nc(OC2CCC(C)(O)CC2)c2c(-c3ccc4nc(C)oc4c3)c[nH]c2n1 (stereo not shown) [Example 358, 4-(4-((1s,4s)-4-hydroxy-4-methylcyclohexyloxy)-5-(2-methylbenzo[d]oxazol-6-yl)-7H-pyrrolo[2,3-d]pyrimidin-2-ylamino)-3-methoxy-N-(1-methylazetidin-3-yl)benzamide] |  | 0.1 to 0.4
COc1cc(C(=O)NCCO)ccc1Nc1nc(OC2CCOCC2)c2c(-c3cnn(C)c3)c[nH]c2n1 [Example 327, N-(2-hydroxyethyl)-3-methoxy-4-(5-(1-methyl-1H-pyrazol-4-yl)-4-(tetrahydro-2H-pyran-4-yloxy)-7H-pyrrolo[2,3-d]pyrimidin-2-ylamino)benzamide] |  | 0.1 to 0.4
COc1cc(C(=O)N(C)C)ccc1Nc1nc(OC)c2c(-c3ccnc(F)c3)c[nH]c2n1 [Example 412, 4-(5-(2-fluoropyridin-4-yl)-4-methoxy-7H-pyrrolo[2,3-d]pyrimidin-2-ylamino)-3-methoxy-N,N-dimethylbenzamide] | 0.4 to 1 | 
CNC(=O)c1ccc(-c2c[nH]c3nc(Nc4ccc(C(=O)NC5COC5)cc4OC)nc(OC4CC(F)(F)C4)c23)cc1 [Example 345, 4-(4-(3,3-difluorocyclobutoxy)-5-(4-(methylcarbamoyl)phenyl)-7H-pyrrolo[2,3-d]pyrimidin-2-ylamino)-3-methoxy-N-(oxetan-3-yl)benzamide] |  | < 0.1
CNC(=O)c1ccc(Nc2nc(OC3CCC(C)(O)CC3)c3c(-c4ccc5nc(C)oc5c4)c[nH]c3n2)c(Cl)c1 (stereo not shown) [Example 429, 3-chloro-4-(4-((1s,4s)-4-hydroxy-4-methylcyclohexyloxy)-5-(2-methylbenzo[d]oxazol-6-yl)-7H-pyrrolo[2,3-d]pyrimidin-2-ylamino)-N-methylbenzamide] | < 0.1 | 
CNC(=O)c1ccc(-c2c[nH]c3nc(Nc4ccc(C(=O)NC5CN(C)C5)cc4OC)nc(O[C@H]4CCOC4)c23)cc1 [Example 375, (S)-3-methoxy-N-(1-methylazetidin-3-yl)-4-(5-(4-(methylcarbamoyl)phenyl)-4-(tetrahydrofuran-3-yloxy)-7H-pyrrolo[2,3-d]pyrimidin-2-ylamino)benzamide] |  | 0.4 to 1
CNC(=O)c1ccc(Nc2nc(OC(C)C)c3c(-c4ccc5nc(C)oc5c4)c[nH]c3n2)c(Cl)c1 [Example 426, 3-chloro-4-(4-isopropoxy-5-(2-methylbenzo[d]oxazol-6-yl)-7H-pyrrolo[2,3-d]pyrimidin-2-ylamino)-N-methylbenzamide] | < 0.1 | 
CNC(=O)c1ccc(-c2c[nH]c3nc(Nc4ccc(C(=O)NC5COC5)cc4OC)nc(OC4COC4)c23)cc1 [Example 359, 3-methoxy-4-(5-(4-(methylcarbamoyl)phenyl)-4-(oxetan-3-yloxy)-7H-pyrrolo[2,3-d]pyrimidin-2-ylamino)-N-(oxetan-3-yl)benzamide] |  | 0.1 to 0.4
